Reference: article PMC8548882, “The Trp-rich Antimicrobial Amphiphiles With Intramolecular Aromatic Interactions for the Treatment of Bacterial Infection” (Frontiers in Microbiology, 2021)
Ends that are not written are not given here.

How the values were obtained:
S.typhimurium 7731 = type: cell-based, Salmonella enterica serovar typhimurium C77-31
Text: (§1) The tested strains were kindly provided by the laboratory of Veterinary Microbiology and Immunology, the College of Veterinary Medicine, Northeast Agricultural University (gram-negative bacteria, Salmonella enterica serovar typhimurium C77-31, Salmonella typhimurium ATCC 14028, Escherichia coli ATCC 25922, Pseudomonas aeruginosa ATCC 27853 and gram-positive bacteria, Staphylococcus aureus ATCC 29213, Staphylococcus aureus ATCC 43300, Staphylococcus epidermidis ATCC 12228, Staphylococcus aureus ATCC 25923).

S.aureus 29213 = type: cell-based, Staphylococcus aureus ATCC 29213; conditions: 29213
Text: as §1
(§2) The famous microtiter dilution, National Committee for Clinical Laboratory Standards, was adopted to measure the antimicrobial ability of the engineering peptides ([Chou et al., 2016]). In brief, the 50μl with serial dilution was incubated with the same volume bacteria (1×10^5CFU/ml in midi-logarithmic phase) in a 96-well plate 18–24h at 37°C. The positive control was the bacteria treated with culture medium and the negative control was merely culture medium. The MICs (minimum inhibitory concentrations) were defined as the lowest concentration of peptides that prevented the production of visible turbidity ([Tossi et al., 2000]).

[1] = test system: panel of gram-negative and gram-positive bacteria; conditions: over the eight strains of Table 2
Procedure: as §2

S.aureus 25923 = type: cell-based, Staphylococcus aureus ATCC 25923; conditions: 25923
Text: as §1, §2

S.epidermidis 12228 = type: cell-based, Staphylococcus epidermidis ATCC 12228
Text: as §1

P.aeruginosa 27853 = type: cell-based, Pseudomonas aeruginosa ATCC 27853; conditions: 27853
Text: as §1, §2

E. coli 25922 = type: cell-based, Escherichia coli ATCC 25922
Text: as §1

[2] = test system: hRBC, IPEC-J2, HEK 293T, RAW264.7; conditions: hRBC, IPEC-J2, HEK 293T, RAW264.7; listed as F5
Procedure: Besides, the therapeutic index of peptide in the mammalian eukaryotic cell (RAW 264.7, HEK 293T, and IPEC J2) was also calculated to study the biocompatibility of peptides.

[3] = test system: Pseudomonas aeruginosa ATCC 27853; test: Subcutaneous abscess model
Procedure: The in vivo antimicrobial performance of peptides was assessed by the treatment effect of the subcutaneous bacterial abscess model ([Pletzer et al., 2017]). In brief, 24 female ICR mice (weighted 18–20g, WeiTonglihua Co., Ltd. (Beijing)) were divided into four groups and each group contained 6 mice (n=6). […] Then, the Pseudomonas aeruginosa ATCC 27853 cells (100μl, 10^8CFU/ml) were injected into the subcutaneous layer of the dorsum skin. […] The non-infected mice served as a control, which was infected and treated with saline.
The therapeutic effect of peptides was further evaluated by colony counting, and the appearance and the level of inflammatory cytokine ([Tan et al., 2020]). The appearance of abscesses was taking photos and the area of dermonecrotic tissue was measured and calculated with calipers at Day 3. The infected skin on the back of the mouse was harvested entirely and homogenized with saline at Day 3. The homogenate of abscess was spread on the MHA plates and cultivated for 18–24h at 37°C. Then the bacterial colony was counted for data analysis. The serum was collected for proinflammatory cytokines (TNF-α, IL-1α, IL-1β, and IL-2) tests at Day 3. The cytokine levels were determined by commercial ELISA kits (Nanjing Jiancheng Bioengineering Institute, Nanjing, China).
The histopathology of abscesses lesions was further analyzed by hematoxylin/eosin (HE) staining (Aladdin, Shanghai, China). The tissue samples at Day 3 were excised and fixed in 4% paraformaldehyde solution. In addition, the cell nuclei were stained blue and the cytoplasm was stained pink.

[4] = test system: P. aeruginosa ATCC 27853 cells; test: Outer membrane permeabilization, NPN uptake; type: cell-based, Pseudomonas aeruginosa ATCC 27853
Procedure: The outer membrane permeabilization of peptides was observed by monitoring the fluorescence change of dye 1-N-phenylnaphthylamine (NPN; Dong et al., 2014c). The 10μm NPN (Sigma-Aldrich, Shanghai, China) was first incubated with the P. aeruginosa ATCC 27853 cells (OD600=0.2, suspended in 5mM HEPES buffer supplied with 5mM glucose) for 30min. Afterward, the mixture was subjected to the detection of fluorescence, which served as the background at the excitation wavelength (λ=350nm) and the emission wavelength (λ=420nm). Then the peptides with various concentrations (1μM, 2μM, 4μM, 8μM, 16μM, 32μM, and 64μM) were added into the mixture and the fluorescence was monitored until the value was tended to stable. The %NPN uptake against 10μg/ml polymyxin B was calculated to analyze the outer membrane permeability of peptides.

IPEC-J2 cells = type: cell-based, porcine; conditions: IPEC-J2; ratio of IC50 to GM
Procedure: The MTT (3-[4,5 dimethylthiozol-2-yl]-2,5-diphenylterazoliumbromide) dye was selected to analyze the cytotoxicity of peptides against the murine macrophage cell RAW 264.7 (National Collection of Authenticated Cell Cultures, Shanghai, China), human embryonic kidneys (HK293T), and the porcine intestinal epithelial cells (IPEC-J2) as in our previously study ([Li et al., 2020]). In short, the cells (10^4 cells/well) were seeded into 96-well plates and were cultivated overnight. Then the peptides with different final concentration (2μM, 4μM, 8μM, 16μM, 32μM, 64μM, and 128μM) were introduced into the plate and challenged with cells for 24h. After overnight incubation, the 50μl MTT (0.5mg/ml) was added into the cell cultures for 4h. Then the plate was centrifuged to discard the supernatants and obtain the formazan crystals. The DMSO (dimethyl sulfoxide) was employed as a solvent to dissolve the formazan crystals on the bottom of the plate and the optical density was read at 492nm with a microplate reader.

S.typhimurium 14028 = type: cell-based, Salmonella typhimurium ATCC 14028
Text: as §1

normal skin tissue = conditions: mouse, in vivo, sc, 5 mg/kg
Procedure: The potential toxicity of peptides to normal skin tissues was further tested by TUNEL assay ([Huang et al., 2009]). […] The 100μl 100% DMSO treatment served as a positive control, which was well-known for its toxicity to induce skin necrosis. Then, the skin samples were harvested and were subjected to TUNEL assay and counterstain with 4,6-diamidino-2-phenylindole (DAPI).

MRSA 43300 = type: cell-based, Staphylococcus aureus ATCC 43300; conditions: microtiter dilution, 1×10^5CFU/ml, 18–24h at 37°C, visible turbidity
Text: as §1, §2

VKKWVKKWVKKWVKKW-NH2 [VW5]
MIC (S.typhimurium 7731): 1 µM
MIC (S.aureus 29213): 2 µM
GMMIC, geometric mean of the MICs [1]: 1.68 µM
MIC (S.aureus 25923): 2 µM
MIC (S.epidermidis 12228): 2 µM
MIC (P.aeruginosa 27853): 1 µM
MIC (E. coli 25922): 2 µM
GMTI, geometric mean of TI of various cell lines [2]: > 1218.17
bacterial load in the abscess lesion ([3]; 5mg/kg intraperitoneally twice a day, Day 3, n=6): 12.72±2.26 ×10^9CFU/abscess
IL-1β in serum ([3]; 5mg/kg, Day 3, ELISA, saline 95.99±4.31): 72.36 ± 4.15 pg/mL
IL-1α in serum ([3]; 5mg/kg, Day 3, ELISA, saline 99.95±4.71): 79.82 ± 4.79 pg/mL
TNF-α in serum ([3]; 5mg/kg, Day 3, ELISA, saline 1020.654±51.08): 756.62 ± 39.12 pg/mL
IL-2 in serum ([3]; 5mg/kg, Day 3, ELISA, saline 1492.65±48.11): 1296.25 ± 150.86 pg/mL
histological examination of abscess lesion, dermal tissue structures ([3]; 5mg/kg, HE staining, Day 3): relative integrity
%NPN uptake against 10μg/ml polymyxin B ([4]; peptide 1μM): 9.49%
%NPN uptake against 10μg/ml polymyxin B ([4]; peptide 64μM): 102.91%
Therapeutic index (TI) (IPEC-J2 cells): 3051.34
MIC (S.typhimurium 14028): 2 µM
apoptotic cells in epidermal layer (TUNEL) (normal skin tissue): no obvious green fluorescence
MIC (MRSA 43300): 2 µM
